Data on 6 compounds can be found in patent US20090156645A1, “Method for Increasing the Susceptibility of Peptide Deformylase Inhibitors by Using Efflux Pump Inhibitors” (priority 2004, published 2009).

≈ marks a conversion by molar mass, not a printed value. Where two headings read alike, the source gives them in different places. Where a SMILES comes first, the peptide text is derived from it. The star is where a group is joined. βNA = c1ccc2cc(N*)ccc2c1 A value given as a limit tells only on which side of the number the result lay.

The subject of assay [1] is H. influenzae. In words: microbe, parasite or virus in culture. The format is cell-based, Haemophilus influenzae. The following applies: for effect of inactivation of HI1462 on susceptibility: H. influenzae NB65044; for MIC: Haemophilus influenzae; for effect of insertional inactivation of acrB on susceptibility: laboratory strain NB65044. The procedure:
L-broth or L-agar (Difco) is used for routine growth of Escherichia coli (E. coli). Chocolate agar plates (Remel) are used for routine growth of H. influenzae. Brain heart infusion broth (Remel) supplemented with 10 μg/mL of β-NAD (Fluka) and 10 μg/mL hemin/vitamin K solution (sBHI) (Remel) is used for liquid broth cultivation of H. influenzae. For induction of natural competence in H. influenzae, nutritional downshift is induced using M-IV medium as described previously. See Poje and Redfield, Methods Mol Med, Vol. 71, No., pp. 57-70 (2003). Kanamycin is added to growth media at 50 μg/mL (E. coli) or 5 μg/mL (H. influenzae) as required.
Antibiotic and substrate MICs are determined by broth microdilution using 2-fold dilution in HTM in accordance with the procedures established by the National Committee for Clinical Laboratory Standards (NCCLS). See NCCLS, Approved standard M7-A5, Wayne, Pa. (2003). PDF inhibitors are synthesized at the Novartis Institutes for BioMedical Research, Cambridge, Mass. All remaining antibiotics are obtained from Sigma (St. Louis, Mo.).

The test system of assay [2] is E. coli. As to the kind of experiment: MIC of LBM415 in E. coli with or without AcrAB-TolC pump function. The format is cell-based. The following applies: Escherichia coli. How it is done: (§1) For E. coli testing, strain NB27006 is used. This strain is deficient in its native AcrAB pump (described in H Okusu et al. J. Bacteriol. 1996 178: 306-308) and is a suitable host for cloning the H. influenzae acrAB pump genes.
(§2) E. coli: MIC determines are conducted as described above except using Mueller-Hinton test medium.
12). The acrAB containing product is cloned into Topo PCR2.1 (Invitrogen) and transformed into Top10 competent cells (Invitrogen). An insert bearing plasmid is isolated and sequenced to ensure that mutations are not introduced during PCR and cloning. This plasmid is then transformed into E. coli strain NB27006, which lacks its native AcrAB-ToIC pump function.
To further examine this, the H. influenzae acrAB genes are cloned and used to complement, in trans, an AcrAB pump deficiency in E. coli strain NB27006.

For assay [3], the system named is H. influenzae NB65044-CDS0011. In words: Potentiation of antibiotic MIC by efflux inhibitor (two-axis 96-well plates). The format is cell-based, Haemophilus influenzae. The following applies: H. influenzae overexpressing AcrAB; data not shown. The procedure:
H. influenzae NB65044-CDS0011 is used for H. influenzae testing. This strain has increased pump expression which is thought to result in more sensitive detection of pump inhibition.
H. influenzae: MIC determinations are conducted in 96 well sterile plates with a range of LBM415 along one axis and range of efflux inhibitor along the other axis. Medium used is HTM (Remel). Inoculum is set to approximately […] bacteria per well using the BBL prompt system.

For assay [4], the system named is E. coli strain NB27006 complemented with H. influenzae acrAB genes. As to the kind of experiment: Potentiation of antibiotic MIC by efflux inhibitor in E. coli carrying the H. influenzae acrAB genes. In kind it is cell-based, Escherichia coli. Conditions: E. coli complemented in trans with H. influenzae acrAB genes. The procedure:
as §1, §2
Genes encoding H. influenzae AcrAB pump components are PCR amplified from NB65044 genomic DNA using the primers acrA prom F1 (5′-AATTA[…]-3′) (SEQ ID NO. 11) and acrBR3 […] 5′-[…]-3″) (SEQ ID NO. 12). The acrAB containing product is cloned into Topo PCR2.1 (Invitrogen) and transformed into Top10 competent cells (Invitrogen). An insert bearing plasmid is isolated and sequenced to ensure that mutations are not introduced during PCR and cloning. This plasmid is then transformed into E. coli strain NB27006, which lacks its native AcrAB-ToIC pump function.
Since efflux pumps are impacted by such factors as outer membrane permeability, and E. coli is thought to have a less permeable outer membrane than H. influenzae (possibly accounting for increased impact of efflux on drug resistance), it has reasoned that the detection of H. influenzae AcrAB pump inhibition might be more sensitive in an E. coli background. […] This is interesting in that the native E. coli AcrAB-ToIC pump does extrude tetracycline.

[5] abbreviates: strain NB65016 (clinical isolate), read-out: MIC.
Where [6] appears, read: strain NB65016-CDS0004, knockout acrB.
Setting [7] is: strain NB65027 (clinical isolate), read-out: MIC.
[8] abbreviates: strain NB65027-CDS0003, knockout HI1462.
[9] abbreviates: strain NB65027-CDS0021, knockout acrB.
Setting [10] is: strain NB65044 (Rd KW20, parent laboratory strain), read-out: MIC.
Where [11] appears, read: strain NB65044-CDS0001 (NB65044 acrB::Km).
[12] abbreviates: strain NB65044-CDS0020 (Table 1: NB65044 acrB::Km).
The mark [13] stands for this setting: strain NB65051 (clinical isolate), read-out: MIC.
The mark [14] stands for this setting: strain NB65051-CDS0002, knockout acrB.
Where [15] appears, read: strain NB65051-CDS0022, knockout HI1462.
[16] abbreviates: strain NB65063 (clinical isolate), read-out: MIC.
[17] abbreviates: strain NB65063-CDS0005, knockout acrB.
The mark [18] stands for this setting: strain NB65069 (clinical isolate), read-out: MIC.
Setting [19] is: strain NB65069-CDS0007, knockout acrB.
[20] abbreviates: strain NB65076 (clinical isolate), read-out: MIC.
[21] abbreviates: strain NB65076-CDS0006, knockout acrB.

Regarding `CC[C@H]1OC(=O)[C@H](C)[C@@H](O[C@H]2C[C@@](C)(OC)[C@@H](O)[C@H](C)O2)[C@H](C)[C@@H](O[C@@H]2O[C@H](C)C[C@H](N(C)C)[C@H]2O)[C@](C)(O)C[C@@H](C)C(=O)[C@H](C)[C@@H](O)[C@]1(C)O` [ERM, erythromycin], in assay [1], the “effect of inactivation of HI1462 on susceptibility” value is “increases susceptibility”. Further, the MIC in assay [1] (setting [5]) was 16 µg/mL (≈ 21.8 µM); in assay [1] (setting [6]) it was 0.25 µg/mL (≈ 0.341 µM); in assay [1] (setting [7]), 16 µg/mL (≈ 21.8 µM); in assay [1] (setting [8]) it was 0.125 µg/mL (≈ 0.17 µM); in assay [1] (setting [9]), 0.25 µg/mL (≈ 0.341 µM); in assay [1] (setting [10]), 4 µg/mL (≈ 5.45 µM). The MIC in assay [1] (setting [11]) came out at 0.25 µg/mL (≈ 0.341 µM); in assay [1] (setting [12]) it was 0.25 µg/mL (≈ 0.341 µM); in assay [1] (setting [13]), 16 µg/mL (≈ 21.8 µM); in assay [1] (setting [14]), 0.25 µg/mL (≈ 0.341 µM); in assay [1] (setting [15]), 0.125 µg/mL (≈ 0.17 µM); in assay [1] (setting [16]) it was 8 µg/mL (≈ 10.9 µM). For the same compound, the MIC was determined as 0.25 µg/mL (≈ 0.341 µM) in assay [1] (setting [17]); 16 µg/mL (≈ 21.8 µM) in assay [1] (setting [18]); 0.125 µg/mL (≈ 0.17 µM) in assay [1] (setting [19]); 16 µg/mL (≈ 21.8 µM) in assay [1] (setting [20]); 0.125 µg/mL (≈ 0.17 µM) in assay [1] (setting [21]). The “effect of insertional inactivation of acrB on susceptibility” value (“effect … of acrB on susceptibility” for short) in assay [1] is given as “increases susceptibility”.
For `CCCC[C@H](CN(O)C=O)C(=O)N1CCC[C@H]1C(=O)Nc1ccc(F)c[n+]1[O-]` [LBM415], the “effect of inactivation of HI1462 on susceptibility” value in assay [1] is reported as “increases susceptibility”. Besides, the MIC worked out at 16 µg/mL (≈ 40.4 µM) in assay [1] (setting [5]); 0.25 µg/mL (≈ 0.631 µM) in assay [1] (setting [6]); 32 µg/mL (≈ 80.7 µM) in assay [1] (setting [7]); 0.5 µg/mL (≈ 1.26 µM) in assay [1] (setting [8]); 0.5 µg/mL (≈ 1.26 µM) in assay [1] (setting [9]); 4 µg/mL (≈ 10.1 µM) in assay [1] (setting [10]). The MIC in assay [1] (setting [11]) is 0.25 µg/mL (≈ 0.631 µM); in assay [1] (setting [12]), 0.125 µg/mL (≈ 0.315 µM); in assay [1] (setting [13]), 32 µg/mL (≈ 80.7 µM); in assay [1] (setting [14]) it was 0.25 µg/mL (≈ 0.631 µM); in assay [1] (setting [15]), 0.25 µg/mL (≈ 0.631 µM); in assay [1] (strain NB65062 (clinical isolate, hyper-susceptible, acrA deletion), read-out: MIC), no more than 0.25 µg/mL. The MIC came to 8 µg/mL (≈ 20.2 µM) in assay [1] (strain NB65062-CDS0037 (NB65062 complemented for acrA deficiency), read-out: MIC); 8 µg/mL (≈ 20.2 µM) in assay [1] (strain NB65062-CDS0038 (NB65062 complemented for acrA deficiency), read-out: MIC); 32 µg/mL (≈ 80.7 µM) in assay [1] (setting [16]); 1 µg/mL (≈ 2.52 µM) in assay [1] (setting [17]); 16 µg/mL (≈ 40.4 µM) in assay [1] (setting [18]); 0.25 µg/mL (≈ 0.631 µM) in assay [1] (setting [19]). Further, the MIC in assay [1] (setting [20]) was 16 µg/mL (≈ 40.4 µM); in assay [1] (setting [21]), 0.25 µg/mL (≈ 0.631 µM); in assay [2] (E. coli strain NB27006 complemented with the H. influenzae acrAB genes) it was 32 µg/mL; in assay [2] (E. coli strains deficient in AcrAB-ToIC pump function, typical value), roughly 1 µg/mL; in assay [2] (E. coli with native AcrAB-ToIC pump, typical value), no less than 128 µg/mL. Further, the decrease in susceptibility in assay [1] (acrR insertionally inactivated in NB65044 (NB65044-CDS0008) versus parent) is reported as 2 fold; in assay [1] (two acrR mutants of NB65044 selected on 8 μg/mL LBM415 versus parent) it was 8 fold. The “effect … of acrB on susceptibility” value in assay [1] is “significantly increases susceptibility”.
`N=C(N)NCCC[C@H](NC(=O)[C@@H](N)Cc1ccccc1)C(=O)Nc1ccc2ccccc2c1` [MC-207,110] (H-Phe-Arg-βNA): in assay [3], the “potentiation of LBM415 activity” value is “potentiation”, the potentiation of clindamycin entry is given as “potentiate” and the “potentiation of tetracycline (pump non-substrate)” value is given as “no potentiation”. Further, in assay [4], the “potentiation of LBM415” value was “potentiating activity”, the potentiation of clindamycin entry is “potentiating activity” and the potentiation of tetracycline result is on record as “no potentiation”.
As for `COC(=O)[C@H]1[C@H]2C[C@@H]3c4[nH]c5cc(OC)ccc5c4CCN3C[C@H]2C[C@@H](OC(=O)c2cc(OC)c(OC)c(OC)c2)[C@@H]1OC` [Reserpine], in assay [3], the “potentiation of LBM415 activity” value is recorded as “did not potentiate” and the potentiation of clindamycin entry was “did not potentiate”.
Take `CN(C)[C@@H]1C(O)=C(C(N)=O)C(=O)[C@@]2(O)C(O)=C3C(=O)c4c(O)cccc4[C@@](C)(O)[C@H]3C[C@@H]12` [TET, tetracycline]: the MIC in assay [1] (setting [6]) was 1 µg/mL (≈ 2.25 µM); in assay [1] (setting [8]), 1 µg/mL (≈ 2.25 µM); in assay [1] (setting [9]), 0.5 µg/mL (≈ 1.13 µM); in assay [1] (setting [11]), 0.5 µg/mL (≈ 1.13 µM); in assay [1] (strain NB65044-CDS0008, knockout acrR), 0.5 µg/mL (≈ 1.13 µM); in assay [1] (strain NB65044-CDS0011 (acrR mutant selected on 8 μg/mL LBM415, stop codon)), 1 µg/mL (≈ 2.25 µM). The MIC in assay [1] (strain NB65044-CDS0014 (acrR mutant selected on 8 μg/mL LBM415, L→P)) is 1 µg/mL (≈ 2.25 µM); in assay [1] (setting [12]) it was 1 µg/mL (≈ 2.25 µM); in assay [1] (setting [14]), 1 µg/mL (≈ 2.25 µM); in assay [1] (setting [15]) it was 1 µg/mL (≈ 2.25 µM); in assay [1] (setting [17]), 1 µg/mL (≈ 2.25 µM); in assay [1] (setting [19]), 1 µg/mL (≈ 2.25 µM). For the same compound, the MIC in assay [1] (setting [21]) turned out to be 1 µg/mL (≈ 2.25 µM).
Regarding `O=C(N[C@H](CO)[C@H](O)c1ccc([N+](=O)[O-])cc1)C(Cl)Cl` [chloramphenicol], in assay [1], the “effect … of acrB on susceptibility” value is listed as “unaffected”.
